Assay results from patent US20250313548A1 (Actio Biosciences, Inc., priority 2023, published 2025).
Where a name gives a salt, the structure may show the parent alone.

Each compound was assayed against human, KCNT1 (Homo sapiens (Human), UniProt Q5JUK3) (assay: FLIPR Tl/K Flux Assay). Settings: HEK293 cells stably expressing human KCNT1; Tl+ flux stimulated with EC80 of agonist Loxapine.
Chain of human, KCNT1 (Q5JUK3 whole entry): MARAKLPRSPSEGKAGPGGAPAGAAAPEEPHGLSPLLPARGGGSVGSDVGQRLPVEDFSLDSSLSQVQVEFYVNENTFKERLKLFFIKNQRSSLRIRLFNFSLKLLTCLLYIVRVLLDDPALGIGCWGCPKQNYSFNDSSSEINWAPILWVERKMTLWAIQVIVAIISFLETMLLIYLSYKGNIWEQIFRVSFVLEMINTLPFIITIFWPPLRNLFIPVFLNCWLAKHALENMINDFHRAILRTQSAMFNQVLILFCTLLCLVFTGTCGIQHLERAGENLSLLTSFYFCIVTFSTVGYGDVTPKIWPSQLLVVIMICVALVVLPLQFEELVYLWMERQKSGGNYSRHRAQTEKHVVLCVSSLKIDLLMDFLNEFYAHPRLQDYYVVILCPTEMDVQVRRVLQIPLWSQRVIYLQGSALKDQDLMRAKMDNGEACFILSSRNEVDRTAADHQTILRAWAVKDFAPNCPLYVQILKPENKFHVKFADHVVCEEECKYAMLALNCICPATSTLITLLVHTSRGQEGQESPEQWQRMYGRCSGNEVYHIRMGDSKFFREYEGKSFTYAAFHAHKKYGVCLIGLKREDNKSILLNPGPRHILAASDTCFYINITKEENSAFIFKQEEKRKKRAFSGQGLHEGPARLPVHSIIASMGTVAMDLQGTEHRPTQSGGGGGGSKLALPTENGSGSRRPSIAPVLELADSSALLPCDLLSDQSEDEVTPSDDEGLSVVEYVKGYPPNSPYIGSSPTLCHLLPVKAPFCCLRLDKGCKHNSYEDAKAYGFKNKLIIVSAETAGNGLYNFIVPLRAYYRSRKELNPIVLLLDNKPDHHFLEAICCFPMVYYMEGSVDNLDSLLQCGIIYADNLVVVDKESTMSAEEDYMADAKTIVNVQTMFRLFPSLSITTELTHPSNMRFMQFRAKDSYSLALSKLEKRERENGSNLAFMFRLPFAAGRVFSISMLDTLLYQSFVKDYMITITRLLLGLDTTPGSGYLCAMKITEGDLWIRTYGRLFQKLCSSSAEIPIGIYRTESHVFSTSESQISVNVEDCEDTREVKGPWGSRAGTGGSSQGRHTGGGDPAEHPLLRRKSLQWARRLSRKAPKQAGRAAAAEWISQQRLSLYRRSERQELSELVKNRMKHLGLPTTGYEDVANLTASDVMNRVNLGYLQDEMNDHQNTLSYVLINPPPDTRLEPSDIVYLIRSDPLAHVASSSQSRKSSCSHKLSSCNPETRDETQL
Format: cell-based
Protocol: HEK293 cells stably expressing human, KCNT1 were cultured in DMEM, 10% FBS, 100 U/mL penicillin-streptomycin and […] puromycin for selection purposes. One day before the assay, cells were detached using TrypLE™ Express and counted using a cell counter. Only cells with >85% viability were used for the assay. […] The cells were incubated overnight at 37° C., 5% (v/v) CO2.
On the day of the assay, the reagents were prepared following the FLIPR® Potassium Assay Kit manual: prepare 2× dye solution, dilute the dye with assay buffer (20 mM HEPES in 1× HBSS, PH7.4), addition of probenecid to a final concentration of 5 mM, and vortexed vigorously for 1-2 minutes. The cell plate was flicked to remove medium and tapped on paper towels to remove excess media. […] The cell plate was moved to a plate shaker, agitated at 600 rpm for two minutes, and then incubated at 25° C. for one hour.
The compounds were prepared in DMSO and transferred to a 384-well compound plate (PP, low binding), referred to as a source plate. Reference agonist (300 nM) compound and test inhibitor (10 mM) compounds were added to the compound plate and a 4-fold serial dilution was performed in DMSO. Using an ECHO dispenser, compounds were dispensed at 90 nL/well from the source plate to a 384-well compound plate (PP, low binding). After the dispensing was complete, 30 µL/well assay buffer was added to the compound plate and mixed for two minutes on a plate shaker. The cell plate, compound plate, and tips were loaded into the FLIPR instrument, and a transfer of 10 μl of 3× compound to the cell plate was initiated. The treated cell plate was kept at in the dark at 25° C. for 30 minutes. Chloride-free stimulation buffer containing 4× 2 mM Tl+ and 4×EC80 of agonist Loxapine was loaded into a 384-well compound plate (PP, low binding). After the 30-minute incubation, the cell plate, compound plate containing stimulation buffer, and FLIPR tips were loaded into the FLIPR instrument. After a baseline read, the FLIPR initiates a transfer of 10 μL of stimulation buffer containing Loxapine to the cell plate. The plate was read for 160 sec with 1 second interval reads to obtain the data.
The normalized fluorescence reading (RFU) was calculated as shown follow, while Fmax and Fmin stand for maximum and minimum of signal during defined time window. The IC50 was calculated by fitting % inhibition against log of compound concentrations with Hill equation using XLfit.
“(S)—N-(2-(2-Cyclopropyl-5-fluoropyridin-4-yl)-5,6-dihydro-4H-pyrrolo[1,2-b]pyrazol-4-yl)-1-methyl-3-(trifluoromethyl)-1H-pyrazole-5-carboxamide [Compound I-154a]” was tested, and the IC50 was < 250 nM. For `Cn1nc(C(F)(F)F)nc1C(=O)N[C@H]1CCn2nc(-c3cc(C(F)(F)F)ncc3Cl)cc21` [Compound I-142a, (S)-N-(2-(5-Chloro-2-(trifluoromethyl)pyridin-4-yl)-5,6-dihydro-4H-pyrrolo[1,2-b]pyrazol-4-yl)-1-methyl-3-(trifluoromethyl)-1H-1,2,4-triazole-5-carboxamide], the IC50 was < 250 nM. `COc1cc(-c2nc3c(o2)CCC[C@@H]3NC(=O)c2cncc(C(F)(F)F)n2)ccn1` [Compound I-211a, (S)-N-(2-(2-Methoxypyridin-4-yl)-4,5,6,7-tetrahydrobenzo[d]oxazol-4-yl)-6-(trifluoromethyl)pyrazine-2-carboxamide] was tested, and the IC50 was < 250 nM. In the case of `N#Cc1cncc(C(=O)N[C@H]2CCCn3nc(-c4ccnc(C(F)(F)F)c4)cc32)n1` [Compound I-321a, (S)-6-Cyano-N-(2-(2-(trifluoromethyl)pyridin-4-yl)-4,5,6,7-tetrahydropyrazolo[1,5-a]pyridin-4-yl)pyrazine-2-carboxamide], the IC50 is reported as < 250 nM. For `Cc1cnc(C(F)(F)F)cc1-c1cc2n(n1)CC[C@@H]2NC(=O)c1cc(C(F)(F)F)nn1C` [Compound I-236a, (S)-1-Methyl-N-(2-(5-methyl-2-(trifluoromethyl)pyridin-4-yl)-5,6-dihydro-4H-pyrrolo[1,2-b]pyrazol-4-yl)-3-(trifluoromethyl)-1H-pyrazole-5-carboxamide], the IC50 was < 250 nM. In the case of `Cn1nc(C(F)(F)F)cc1C(=O)N[C@H]1CCCc2oc(-c3cc(C(F)(F)F)ncc3Cl)nc21` [Compound I-189a], the IC50 is reported as < 250 nM. In the case of `N#Cc1cccc(C(=O)N[C@H]2CCCn3nc(-c4cc(C(F)(F)F)ncc4F)cc32)c1` [Compound I-302a, (S)-3-Cyano-N-(2-(5-fluoro-2-(trifluoromethyl)pyridin-4-yl)-4,5,6,7-tetrahydropyrazolo[1,5-a]pyridin-4-yl)benzamide], the IC50 is reported as < 250 nM. For `O=C(N[C@H]1CCn2nc(-c3ccnc(C(F)(F)F)c3)cc21)c1cccc(C(F)(F)F)c1` [Compound I-289a, (S)-3-(Trifluoromethyl)-N-(2-(2-(trifluoromethyl)pyridin-4-yl)-5,6-dihydro-4H-pyrrolo[1,2-b]pyrazol-4-yl)benzamide], the IC50 was < 250 nM. `Cc1cc(C)cc(C(=O)N[C@@H]2CCc3nn(-c4ccnc(C(F)(F)F)c4)cc32)c1` [Compound I-372b] gave an IC50 of 500 to 1000 nM. In the case of `Cc1cc(C(=O)N[C@H]2CCCc3oc(-c4ccnc(C5CC5)c4)nc32)cc(C(F)(F)F)c1` [Compound I-242a, (S)-N-(2-(2-Cyclopropylpyridin-4-yl)-4,5,6,7-tetrahydrobenzo[d]oxazol-4-yl)-3-methyl-5-(trifluoromethyl)benzamide], the IC50 is reported as < 250 nM. `O=C(N[C@H]1CCn2nc(-c3ccnc(C(F)(F)F)c3)cc21)[C@@H]1C[C@H]1C(F)(F)F` [I-488^, (1R,2R)-2-(trifluoromethyl)-N—((S)-2-(2-(trifluoromethyl)pyridin-4-yl)-5,6-dihydro-4H-pyrrolo[1,2-b]pyrazol-4-yl)cyclopropane-1-carboxamide] was tested, and the IC50 was < 250 nM. In the case of `O=C(N[C@H]1CCCn2nc(-c3cc(C(F)(F)F)ncc3F)cc21)c1cnc(C(F)(F)F)cn1` [Compound I-202a, (S)-N-(2-(5-Fluoro-2-(trifluoromethyl)pyridin-4-yl)-4,5,6,7-tetrahydropyrazolo[1,5-a]pyridin-4-yl)-5-(trifluoromethyl)pyrazine-2-carboxamide], the IC50 is reported as < 250 nM. With `N#Cc1cccc(C(=O)N[C@H]2CCCCn3cc(-c4ccnc(C(F)(F)F)c4)cc32)c1` [Compound I-263a, (S)-3-Cyano-N-(2-(2-(trifluoromethyl)pyridin-4-yl)-6,7,8,9-tetrahydro-5H-pyrrolo[1,2-a]azepin-9-yl)benzamide] the IC50 was < 250 nM. `CCc1cc(-n2cc3c(n2)CC[C@@H]3NC(=O)c2cc(C(F)(F)F)nn2C)ccn1` [Compound I-69a] was tested, and the IC50 was < 250 nM. In the case of `CC(C)(C)CC(=O)N[C@H]1CCc2nn(-c3ccnc(C(F)(F)F)c3)cc21` [Compound I-103a], the IC50 is reported as < 250 nM. Compound `Cc1c(-c2ccnc(C(F)(F)F)c2)nn2c1[C@H](NC(=O)c1cc(C(F)(F)F)nn1C)CCC2` [Compound I-353b] has an IC50 of 500 to 1000 nM. In the case of `Cc1cc(C#N)cc(C(=O)NC2CCn3nc(-c4ccnc(C5CC5)c4)cc32)c1` (centres unmarked) [Compound I-306a, 3-Cyano-N-(2-(2-cyclopropylpyridin-4-yl)-5,6-dihydro-4H-pyrrolo[1,2-b]pyrazol-4-yl)-5-methylbenzamide], the IC50 is reported as < 250 nM. With `Cc1cnc(C(F)(F)F)cc1-c1cc2n(n1)CCCC[C@H]2NC(=O)c1cc(C(F)(F)F)nn1C` [Compound I-311b] the IC50 was > 1000 nM. In the case of `Cc1nn(C(F)(F)F)cc1C(=O)N[C@H]1CCCc2oc(-c3ccnc(C(F)(F)F)c3)nc21` [Compound I-557a, (S)-3-Methyl-1-(trifluoromethyl)-N-(2-(2-(trifluoromethyl)pyridin-4-yl)-4,5,6,7-tetrahydrobenzo[d]oxazol-4-yl)-1H-pyrazole-4-carboxamide], the IC50 is reported as < 250 nM. In the case of `O=C(N[C@H]1CCCc2cnc(-c3ccnc(C(F)(F)F)c3)cc21)c1cc2cccnn2c1` (single isomer, unassigned) [I-268*], the IC50 is reported as > 1000 nM. `CN(C(=O)N[C@H]1CCc2nn(-c3ccnc(C(F)(F)F)c3)cc21)c1ccccc1` [Compound I-102a] was tested, and the IC50 was < 250 nM. In the case of `Cc1c(-c2ccnc(C(F)(F)F)c2)nn2c1[C@@H](NC(=O)c1cc(C(F)(F)F)nn1C)CCC2` [Compound I-44a], the IC50 is reported as < 250 nM. With `O=C(NC1CCCc2nn(-c3ccnc(C(F)(F)F)c3)cc21)c1ccncc1` (racemic) [Compound I-36, (rac)-N-(2-(2-(Trifluoromethyl)pyridin-4-yl)-4,5,6,7-tetrahydro-2H-indazol-4-yl)isonicotinamide] the IC50 was > 1000 nM. In the case of `Cn1cc(C(=O)N[C@H]2CCCn3nc(-c4ccnc(C(F)(F)F)c4)cc32)c(C(F)(F)F)c1` (single isomer, unassigned) [Compound I-409a], the IC50 is reported as < 250 nM. With `N#Cc1cccc(C(=O)N[C@H]2CCCc3nn(-c4ccnc(C(F)(F)F)c4)cc32)c1` [Compound I-112a, (S)-3-Cyano-N-(2-(2-(trifluoromethyl)pyridin-4-yl)-4,5,6,7-tetrahydro-2H-indazol-4-yl)benzamide] the IC50 was < 250 nM. For `Cc1cc(C(=O)N[C@H]2CCc3nn(-c4ccnc(C(F)(F)F)c4)cc32)cc(C(F)(F)F)c1` [Compound I-373a], the IC50 was < 250 nM. `Cn1nc(C(F)(F)F)cc1C(=O)N[C@@H]1CCc2nn(-c3ccnc(C4CC4)c3)cc21` [Compound I-71b] was tested, and the IC50 was 500 to 1000 nM. With `CC(C)n1cnc(C(=O)N[C@H]2CCCn3nc(-c4ccnc(C(F)(F)F)c4)cc32)n1` [Compound I-412a] the IC50 was > 1000 nM. For `Cc1cc(C#N)cc(C(=O)N[C@H]2CCCn3nc(-c4ccnc(C5CC5)c4)cc32)c1` [Compound I-281a, (S)-3-Cyano-N-(2-(2-cyclopropylpyridin-4-yl)-4,5,6,7-tetrahydropyrazolo[1,5-a]pyridin-4-yl)-5-methylbenzamide TFA salt], the IC50 was < 250 nM. With `O=C(N[C@H]1CCCc2oc(-c3ccnc(C(F)(F)F)c3)nc21)c1cc2cccnn2c1` [Compound I-296a, (S)-N-(2-(2-(Trifluoromethyl)pyridin-4-yl)-4,5,6,7-tetrahydrobenzo[d]oxazol-4-yl)pyrrolo[1,2-b]pyridazine-6-carboxamide] the IC50 was < 250 nM. Compound `O=C(N[C@@H]1CCCCc2nn(-c3ccnc(C4CC4)c3)cc21)c1cccc(C(F)(F)F)c1` [Compound I-60b] has an IC50 of 500 to 1000 nM. For `Cn1nc(C(F)(F)F)nc1C(=O)N[C@H]1CCCc2nn(-c3ccnc(C(F)(F)F)c3)cc21` [Compound I-50a], the IC50 was < 250 nM. With `O=C(N[C@H]1CCCCc2nn(-c3ccnc(C4CC4)c3)cc21)c1cccc(C(F)(F)F)c1` [Compound I-60a] the IC50 was < 250 nM. In the case of `COc1cc(-c2cc3n(n2)CCCC[C@@H]3NC(=O)c2cc(F)cc(C#N)c2)c(F)cn1` [Compound I-183a, (S)-3-Cyano-5-fluoro-N-(2-(5-fluoro-2-methoxypyridin-4-yl)-5,6,7,8-tetrahydro-4H-pyrazolo[1,5-a]azepin-4-yl)benzamide], the IC50 is reported as < 250 nM. `COc1cc(-c2cc3n(n2)CC[C@@H]3NC(=O)c2ccc(F)c(C#N)c2)ccn1` [Compound I-257a, (S)-3-Cyano-4-fluoro-N-(2-(2-methoxypyridin-4-yl)-5,6-dihydro-4H-pyrrolo[1,2-b]pyrazol-4-yl)benzamide] was tested, and the IC50 was < 250 nM.
